Assay results as given in patent US20240288345A1, “FLUORESCENT STAINING METHOD” (OSAKA UNIVERSITY, priority 2022, published 2024).
“Also recorded” adds a separate entry of the source. Like-named read-outs stand apart in the source and are kept apart here. Blank lines part the entries; values can stand above or below the molecule they belong to.

Experiments:
[1] = system: goblet cell mucus of human colorectal mucosal tissue; test: Fluorescent staining of frozen sliced specimen of human colonic mucosa (Test Example A); details: for Fluorescent staining signal in goblet cell mucus, sliced section: 10 μm frozen section, 0.5% periodic acid pretreatment, 50 μM overnight
Protocol: A tissue to be stained was washed with phosphate buffered saline (PBS), was immersed in 30% (w/v) of sucrose in the PBS, and was frozen in O.C.T. COMPOUND (45833, Sakura Finetek) at −80° ° C. overnight. The frozen tissue was cut into a thickness of 10 μm with a cryostat (CM3050 S, Leica Biosystems). The resultant frozen section was washed with PBS three times, and was subjected to pretreatment with a 0.5% solution of periodic acid (HIOA) (86171, MUTO PURE CHEMICALS CO., LTD.) at room temperature for 30 minutes. The section was washed with PBS three times, and was incubated in FAM hydrazide, 5-isomer((50 µM, 24170, BroadPharm, in this description, sometimes referred to as “FAM hydrazide”), Alexa Fluor 488 hydrazide (50 μM, A10436, ThermoFisher Scientific, Inc.), BDP FL hydrazide (50 μM, 11470, Lumiprobe Corporation), or fluorescein (50 µM, FUJIFILM Wako Pure Chemical Corporation) diluted with PBS at room temperature overnight. After that, the section was washed with PBS and an image thereof was obtained with a confocal microscope.
A section of a human colorectal mucosal tissue sampled from the non-tumor region of a surgical specimen of colorectal cancer was subjected to fluorescent staining through use of FAM hydrazide, Alexa Fluor 488 hydrazide, BDP FL hydrazide, or fluorescein serving as a fluorescent skeleton as a stain.

[2] = system: human colonic mucosal tissue; test: Clearing and whole-mount 3D fluorescent staining of human colonic mucosal tissue (Test Example B); details: for 3D imaging signal of cleared tissue: CUBIC clearing, periodic acid, 50 μM, 2-3 days, excitation 488 nm; for Staining property for a sample having a thickness after clearing treatment: summary of Examples and Test Examples
Protocol: CUBIC-L and CUBIC-R+reagents (T3740 and T3741, Tokyo Chemical Industry Co., Ltd.) were used in tissue clearing. Atissue removal procedure is simply described below.
A formaldehyde-fixed tissue specimen was washed with PBS, and was subsequently immersed in a 50% (v/v) CUBIC-L reagent (mixture containing water and the CUBIC-L reagent at 1:1) overnight. Further, the specimen was immersed in the CUBIC-L reagent at 37° C. for 5 days or 6 days while being gently shaken. Next, each of those specimens was washed with PBS, was immersed in 30% (w/v) of sucrose in the PBS, and was frozen in O.C.T. COMPOUND at −80° C. overnight. […] After having been washed with PBS, the specimen was stained by being gently shaken at room temperature for 2 days or 3 days together with FAM hydrazide, 5-isomer (50 μM), Compound 1 (50 μM), Alexa Fluor 488 hydrazide (50 µM), BDP FL hydrazide ([…]), or fluorescein (50 µM) in PBS containing 0.5% (v/v) of Triton X-100 (12967, Nacalai Tesque, Inc.). When nuclear counterstaining was performed, propidium iodide (PI) (10 μg/mb, P21493, Life Technologies Corporation) or RedDot-2 (1:100, 40061-T, Biotium, Inc.) was also added to the staining solution. After the staining step, the specimen was washed with PBS, and was immersed in a 50% (v/v) CUBIC-R+reagent (mixture containing water and the CUBIC-R+reagent at 1:1) overnight. Further, the specimen was immersed in the CUBIC-R+reagent for 1 day or 2 days while being gently shaken. A cleared tissue specimen thus obtained was subjected to 3D imaging with a confocal fluorescence microscope or a light-sheet fluorescence microscope. A wavelength of 488 nm was applied as the excitation wavelength of each of FAM hydrazide, Compound 1, Alexa Fluor 488 hydrazide, BDP FL hydrazide, and fluorescein, and the fluorescence detection wavelength range of each of these materials was from 490 nm to 562 nm.
A 3D image was obtained by using a confocal microscope (Zeiss LSM880 Confocal/Multiphoton, Carl Zeiss AG) or a light-sheet fluorescence microscope (Zeiss Lightsheet 7, Carl Zeiss AG), All pieces of raw image data were reconstructed and analyzed with Imaris software (version 9.2.1, Bitplane Inc.).
A human colonic mucosal tissue after its formalin fixation, which had been excised into a square about 4 mm on a side, was subjected to clearing treatment and to whole-mount 3D tissue staining through use of FAM hydrazide, Alexa Fluor 488 hydrazide, BDP FL hydrazide, or fluorescein as a stain.

[3] = Fluorescence spectra before and after addition of propionaldehyde; assay type: physicochemical; details: 0.02 mmol/L in 10 mmol/L sodium phosphate buffer pH 7.4; propionaldehyde 0.10 mmol/L; room temperature 4 days
Protocol: Propionaldehyde was added to a 10 mmol/L sodium phosphate buffer (pH: 7.4) containing 0. 02 mmol/L of each of DAF-2 and Compound 2 so that its final concentration became 0.10 mmol/L, followed by stirring at room temperature for 4 days. The absorption and fluorescence spectra of each of the solutions before the addition of the aldehyde and after the addition were measured.

[4] = system: mucus of a goblet cell of colonic mucosa; test: Staining of frozen sliced section of human colonic mucosal tissue (Example 5); details: 8 μm frozen section, 50 μM in PBS, room temperature 1 day, confocal microscope
Excerpt: A fluorescent probe containing a diaminobenzene structure, such as DAF-2 or Compound 2, was examined for its staining property in the mucus of a goblet cell by using a frozen sliced section of a human colonic mucosal tissue as a positive control analyte. Specifically, a sliced frozen section was cut out of the colonic mucosal tissue after its formalin fixation, and was stained with a group of candidate fluorescent probes and washed with phosphate buffered saline. After that, an image of the section was taken with a confocal fluorescence microscope.
(§1) Specifically, the human colonic mucosal tissue sample after the formalin fixation was sufficiently washed with PBS, and was then immersed in PBS containing 30% (w/v) of sucrose, followed by the production of a frozen block with TISSUE-TEK O. C. T. COMPOUND. The frozen block was sliced into a thickness of 8 μm to produce a frozen section. The frozen section was washed with PBS, and was then stained with a solution, which had been obtained by diluting DAF-2 ([…]) or Compound 2 (50 μM) with PBS, at room temperature for 1 day. After that, the stained product was sufficiently washed with PBS. Then, the washed product was mounted with a water-soluble mounting medium, and an image thereof was taken with a confocal microscope.

[5] = system: basement membrane of a renal glomerulus; test: Staining of basement membrane of renal glomerulus (Example 5); details: staining as for colonic section
Protocol: as §1

[6] = system: colonic mucosal epithelium; test: Staining combined with CUBIC tissue clearing, 3D imaging (Example 5); set-up: species or system human; details: CUBIC-L/CUBIC-R+ clearing, periodic acid pretreatment, 50 μM, room temperature 3 days
Protocol: Specifically, the human colonic mucosal tissue sample after the formalin fixation was sufficiently washed with PBS, and was then immersed in a solution, which had been obtained by diluting a CUBIC-L reagent with distilled water to 1/2, at 37° ° C. while being gently shaken. After that, the sample was immersed in the CUBIC-L reagent, and was treated at 37° C. while being gently shaken. During the treatment, the CUBIC-L reagent was replaced with a new one at an interval of once per 1 to 2 days. After that, the sample was sufficiently washed with PBS, and was then immersed in PBS containing 30% (w/v) of sucrose. After that, a frozen block of the Sample was produced by using TISSUE-TEK O.C.T. COMPOUND. The frozen block was thawed, and was then sufficiently washed with PBS and subjected to pretreatment with a […] aqueous solution of periodic acid, followed by staining with a solution, which had been obtained by diluting DAF-2 (50 μM) with PBS, at room temperature for 3 days. After that, the stained product was sufficiently washed with PBS, and was then immersed in a solution obtained by diluting a CUBIC-R+reagent with distilled water to 1/2, followed by gentle shaking at room temperature. After that, the resultant was immersed in the CUBIC-R+reagent at room temperature for 1 day while being gently shaken. An image of the resultant was taken with a confocal microscope. […]

[7] = Light characteristics: molar extinction coefficient and quantum yield (Table 1); assay type: physicochemical; details: 10 mM sodium phosphate buffer, pH 7.4
Excerpt: When propionaldehyde was caused to act on DAF-2 (product model number: SK1001-01, Goryo Chemical, Inc.), Compound 16 below was obtained. It was recognized that Compound 16 was fluorescent and its fluorescence intensity increased along with the formation of a benzimidazole ring. […] The formation of a covalent bond with the aldehyde enables detection by fluorescence emission.

[8] = 100 mM sodium phosphate buffer, pH 7.4, cited from earlier work

Fluorescence intensity after addition of the aldehyde compared to before [3]: increase
Molecule: Cc1cc(N)c(N)cc1-c1c2ccc(=O)cc-2oc2cc(O)ccc12 [Compound 2]
Staining of mucus of goblet cell of colonic mucosa [4]: clearly stained
Visualization of basement membrane of renal glomerulus [5]: clearly visualized
3D imaging of colonic mucosal epithelium [6]: enabled the 3D imaging
Staining property for a sample having a thickness after clearing treatment [2]: significantly excellent

Fluorescence intensity after addition of the aldehyde compared to before [3]: increase
Molecule: Nc1cc(C(=O)O)c(-c2c3ccc(=O)cc-3oc3cc(O)ccc23)cc1N [DAF-2]
Staining of mucus of goblet cell of colonic mucosa [4]: clearly stained
Visualization of basement membrane of renal glomerulus [5]: clearly visualized
3D imaging of colonic mucosal epithelium [6]: enabled the 3D imaging
Staining property for a sample having a thickness after clearing treatment [2]: significantly excellent
Quantum yield [8]: 0.005
λabs [8]: 486 nm
Molar extinction coefficient ([8]; in M-1 cm-1 (unit assumed)): 79,000

Continued, molecule first:

Molecule: Cc1cc(C)n2c1C=C1C=CC(CCC(=O)NN)=[N+]1[B-]2(F)F.Cl [BDP FL hydrazide]
Fluorescent staining signal in goblet cell mucus, sliced section [1]: weak
3D imaging signal of cleared tissue [2]: weak
Staining property for a sample having a thickness after clearing treatment [2]: insufficient

Molecule: CCc1nc2cc(C(=O)O)c(-c3c4ccc(=O)cc-4oc4cc(O)ccc34)cc2[nH]1 [Compound 16]
Quantum yield [7]: 0.85
λabs [7]: 489 nm
Molar extinction coefficient ([7]; in M-1 cm-1 (unit assumed)): 63,000

Molecule: Alexa Fluor 488 hydrazide
Fluorescent staining signal in goblet cell mucus, sliced section [1]: clear positive image; also recorded: clear staining
Fluorescent staining signal without oxidation treatment with HIO4, sliced section ([1]; no HIO4 oxidation): not obtained
3D imaging signal of cleared tissue [2]: weak
Staining property for a sample having a thickness after clearing treatment [2]: insufficient
